Reference: patent US6034101A, “Dosage form and method for administering drug” (ALZA Corporation, priority 1997, dated 2000)

Tests used:
[1] = tested on: patients; assay: Therapeutic response and acquired tolerance in patients (general statements); assay type: in vivo, human; details: sustained-release dosage form with constant plasma concentration; applicant's finding
[2] = tested on: children with attention deficient hyperactivity disorder; assay: Clinical study of Example 2: behavior and combined attention, acquired tolerance in children with attention deficient hyperactivity disorder; assay type: in vivo, human; details: total 36 mg
Method: (§1) The CLAM Test is a behavior rating that indicates social conformity or rebellion as developed by Conners, Lonez, and Milch and SKAMP is a rating that also measures behavior as developed by Swanson and reported in Psychopharmacological Bulletin, Vol. 21, pp. 887-890 (1985).
(§2) The effect measurements in this study were: (1) observer ratings on SKAMP scale (during classroom time) and (2) performance on the computerized mathematics test. Each child was tested on the mathematics test before the study began, and based on this pre-test during the study, a mathematics test appropriate for each child's ability was given. The morning and evening parent CLAM assessments were used to identify unusual behaviors. The evening parent CLAM was used to determine the presence of treatment effects in the evening hours, particularly treatment effects on the time the child fell asleep, and whether the child's sleep was interrupted. All of the children also wore an activity monitor (Actigraph) which records the movements of the child throughout the day. The activity (number of movements per minute) is recorded electronically and modeled as a function of the drug effect.
The results of a clinical study that comprises administering methylphenidate according to two distinct delivery programs are reported in this example. […]

[3] = immediate release form; cited from earlier work
[4] = tested on: patients; details: cited from earlier work
[5] = tested on: school children; assay: Clinical study of Example 1: behavior, activity, mathematics scores and acute tolerance in school children (SKAMP, CLAM); assay type: in vivo, human
Method: as §1, §2
The immediate release tablet and the sustained-release dosage form were compared to a sustained-release dosage form that administered methylphenidate in an ascending profile. The sustained-release ascending profile corresponds to administering 4.2 mg at zero hour, 1.1 mg at 1.5 hours, 1.1 mg at 2 hours, 1.2 mg at 2.5 hours, 1.2 mg at 3.0 hours, 1.3 mg at 3.5 hours, 1.3 mg at 4 hours, 1.5 mg at 4.5 hours, 1.5 mg at 5 hours, 1.8 mg at 5.5 hours, 1.8 mg at 6 hours, and 2.0 mg at 6.5 hours, to produce the sustained-ascending release dotted line profile seen in FIG. 2.
The accompanying figures present the results of the above-described study. In FIGS. 3, 4, and 5, the line with a clear circle denotes a placebo, the dark circle an immediate release dosage form administered twice a day, the dark squares a sustained release nonascending dosage profile, and the clear squares the sustained ascending release profile provided by this invention. The SKAMP Score and CLAM Score were defined earlier in the specification, and the times are as indicated on the figures. FIG. 3 denotes the observed behavior, FIG. 4 denotes the inattention overactivity, and FIG. 5 denotes the combined attention results of the study.

[6] = sustained-nonascending dose, 20 mg, vs placebo

## COC(=O)C(c1ccccc1)C1CCCCN1 (stereo not shown) [methylphenidate]
[1]
  efficacy against acquired tolerance: lacks efficacy particularly against acquired tolerance
[2]; sustained-ascending program, FIG. 7
  behavior, acquired tolerance: absence of acquired tolerance
[2]; sustained-ascending release, FIG. 8
  combined attention, acquired tolerance: essentially free of developed tolerance
[3]
  half-life: short half-life
  onset: rapid onset
[4]; 5 mg dose twice a day
  tolerance: acquires tolerance
[4]; after administration
  time to development of tolerance: within hours
[4]; prior art sustained-release nonascending dosage form
  acute tolerance: often develops an acute tolerance
[5]; controlled-sustained ascending profile
  therapeutic effect / tolerance: desired therapeutic effect without tolerance
[5]; sustained-nonascending dose, 20 mg
  acute tolerance: development of acute tolerance
[5]; [6]
  activity: decrease in activity
  inappropriate behavior: lessening of inappropriate behavior
  mathematical scores: higher mathematical scores
